One may read the ED50 as the dose at which the effect has come halfway, by size or by number of responders.

This note sets out measurements from patent US5149702A, “Cycloheptenopyridine derivatives, process for preparation thereof and antiulcer agents containing the same” (Toa Eiyo Ltd., priority 1990, dated 1992).

One assay relates to gastric acid secretion. In words: Inhibitory Effect on Gastric Acid Secretion in Ghosh-Schild Rats. The assay is classed as in vivo, rat (male Wistar-KV). The settings on record: 180 minutes after administration. As to the method:
(a) Inhibitory Effect on Gastric Acid Secretion in Ghosh-Schild Rats Each of male Wistar-KV rats was fasted for 24 hours, and a trachea cannula was set up under urethane anesthesia. The abdomen was incised, a double cannula was set up at the forestomach, and then the abdomen was closed. The gastric acid secretion was stimulated by intravenous infusion of […]. Physiological saline was perfused into the stomach through the double cannula at a rate of 1 ml/min., and the effluent was collected every 10 minutes. The acidity of the effluent was measured, using an automatic titrator, by titrating the effluent with 1/100N sodium hydroxide to pH 7. When the acid secretion had reached a stable plateau, the test drug was intravenously administered, and the gastric acid secretion was measured 3 hours after the test drug administration. The antisecretory effect was expressed as percentages of the secretory amount before administration of the test compound. Inhibition percentages at 180 minutes after the administrations are shown.

For assay [1], the system named is gastric lesion induced by ethanol. In words: Inhibitory Effect on Formation of Gastric Lesion Induced by Ethanol. In kind it is in vivo, rat (male Wistar). The settings on record: P.O., 30 minutes before 1 ml of 99.5% ethanol orally, lesions 1 hour after ethanol. As to the method: (b) Inhibitory Effect on Formation of Gastric Lesion Induced by Ethanol
Male Wistar rats weighing 170 to 270 g were used. Each of the rats was placed in separate cages to deprive of food but allowed free access to water for 4 hours. Test drugs or the control drug were orally administered respectively in amounts of 3, 10 and 30 mg/kg, and 30 minutes thereafter 1 ml of 99.5% ethanol were orally administered respectively. One hour after the ethanol administration the rats were sacrificed by cervical vertebrae dislocation, and the stomachs were removed with 8 ml of 1% formalin and put into 1% formalin for 30 minutes to fix the gastric wall. After the fixing, each stomach was opened along the greater curvature, and then after the mucosal surface was washed with tap water, the total length lesions generated at the glandub portion was determined as an ulcer index.
The antiulcer effect by the test drug was expressed by the ED50 value (the dose of the test compound to inhibit the ulcer by 50% to the ulcer index of the non-treated group). Only the solvent was administered to the non-treated group.

Structures are written as SMILES. Counter-ions that a name gives are not always drawn.

In the case of `COCCOc1ccnc2c1CCCCC2[S+]([O-])c1nc2ccccc2[nH]1` (centres unmarked) [Example 96, 9-(Benzimidazole-2-yl)sulfinyl-4-(2-methoxyethoxy)-2,3-cycloheptenopyridine], in the assay with gastric acid secretion, the “Inhibiting action of gastric acid secretion (rat i.v.), 1 mg/kg” value (“Inhibiting action … 1 mg/kg” below) amounted to 38.6% and the “Inhibiting action of gastric acid secretion (rat i.v.), 3 mg/kg” value (“Inhibiting action … 3 mg/kg” below) was determined as 57.4%.

For the molecule `Cc1ccc2[nH]c([S+]([O-])C3CCCCc4cccnc43)nc2c1` (centres unmarked) [Example 75, 9-(5-Methylbenzimidazole-2-yl)sulfinyl-2,3-cycloheptenopyridine], the “Inhibiting action … 3 mg/kg” value with gastric acid secretion stood at 42.1%.

`COc1ccnc2c1CCCCC2[S+]([O-])c1nc2ccccc2[nH]1` (centres unmarked) [Example 77, 9-(Benzimidazole-2-yl)sulfinyl-4-methoxy-2,3-cycloheptenopyridine]: in the assay with gastric acid secretion, the “Inhibiting action … 1 mg/kg” value is reported as 44.7% and the “Inhibiting action … 3 mg/kg” value is 74.7%. Further, the ED50 in assay [1] (Rattus norvegicus, po, read-out: ED50 value (dose of the test compound to inhibit the ulcer by 50% to the ulcer index of the non-treated group)) was found to be 13 mg/kg.

Consider `COc1ccc2[nH]c([S+]([O-])Cc3ncc(C)c(OC)c3C)nc2c1` (centres unmarked) [Omeprazole, reference compound], for which the “Inhibiting action … 1 mg/kg” value in the assay on gastric acid secretion was 36.9%.

With `COc1ccnc2c1CCCCC2[S+]([O-])c1nc2cc(F)ccc2[nH]1` (centres unmarked) [Example 78, 9-(5-Fluorobenzimidazole-2-yl)sulfinyl-4-methoxy-2,3-cycloheptenopyridine], in the assay with gastric acid secretion, the “Inhibiting action … 1 mg/kg” value worked out at 65.4% and the “Inhibiting action … 3 mg/kg” value is 82.9%.

As to `COc1ccnc2c1CCCCC2[S+]([O-])c1nc2ccccc2[nH]1` (centres unmarked) [Example 68, 9-(Benzimidazole-2-yl)sulfinyl-4-methoxy-2,3-cycloheptenopyridine sodium salt], the “Inhibiting action … 1 mg/kg” value in the assay on gastric acid secretion (sodium salt) was determined as 54.9%. Further, the “ED50 value (dose of the test compound to inhibit the ulcer by 50% to the ulcer index of the non-treated group)” value in assay [1] (rat, sodium salt) worked out at 10.9 mg/kg.

Take `COc1c(C)cnc2c1CCCCC2[S+]([O-])c1nc2ccccc2[nH]1` (centres unmarked) [Example 109, 9-(Benzimidazole-2-yl)sulfinyl-4-methoxy-3-methyl-2,3-cycloheptenopyridine]: the “Inhibiting action … 3 mg/kg” value in the assay on gastric acid secretion is 77.6%.

`COc1ccc2[nH]c([S+]([O-])C3CCCCc4c(OC)ccnc43)nc2c1` (centres unmarked) [Example 63, 9-(5-Methoxybenzimidazole-2-yl)sulfinyl-4-methoxy-2,3-cycloheptenopyridine]: in the assay on gastric acid secretion, the “Inhibiting action … 1 mg/kg” value was 45.7% and the “Inhibiting action … 3 mg/kg” value is given as 73.8%.
